Measurements: patent US4888345A, “4,8-disubstituted-1,2-dihydro and 1,2,3,4-tetrahydroimidazo-[1,5-a] pyrimidines” (American Cyanamid Company, priority 1988, dated 1989)

The compounds below were run on Spontaneously Hypertensive Rats (assay: Hypotensive activity: reduction of mean arterial blood pressure in spontaneously hypertensive rats (method of Chan and Poorvin)). Details: gavage, two doses of 100 mg/kg or less 24 hours apart; measured 28 hours after initial dose; average MABP of the rats used 160±1.5 mm Hg.
Format: in vivo
Protocol: Certain of the novel compounds of the present invention are active hypotensive agents at nontoxic doses when administered to mammals. These compounds were tested for hypotensive activity by the method of P. S. Chan and D. Poorvin, Clinical and Experimental Hypertension, 1(6), 817-830 (1979). Male, 16 week old, spontaneously hypertensive rats of the Okamoto strain having an average mean arterial blood pressure of 160±1.5 mm of mercury are used in the test. One to 3 rats are used per test compound. A rat is dosed by gavage with a test compound, suspended in 2% pre-boiled starch at a concentration of 50 mg/ml, at a dose of 100 mg/kg of body weight or less, with 0.9% sodium chloride loading at a dose of 25 ml/kg of body weight. A second identical dose of the test compound, without sodium chloride loading is given 24 hours later. At 28 hours after the initial dose the mean arterial blood pressure is measured by the method of Chan and Poorvin vide supra. The procedure is repeated in a second and third rat when necessary.

SMILES	MABP/mm Hg (mean arterial blood pressure after dosing)
NC(=O)c1ncn2c1NCC=C2c1cccc([N+](=O)[O-])c1 [Example 35, 1,2-Dihydro-4-(3-nitrophenyl)imidazo-[1,5-a]pyrimidine-8-carboxamide]	139 mm Hg
NC(=O)c1ncn2c1NCC=C2c1ccccc1 [Example 29, 1,2-Dihydro-4-phenylimidazo[1,5-a]-pyrimidine-8-carboxamide]	121 mm Hg
NC(=O)c1ncn2c1NCC=C2c1cccc(Cl)c1 [Example 27, 4-(3-Chlorophenyl)-1,2-dihydroimidazo[1,5-a]-pyrimidine-8-carboxamide]	132 mm Hg
NC(=O)c1ncn2c1NCC=C2c1cccnc1 [Example 37, 1,2-Dihydro-4-(3-pyridinyl)imidazo-[1,5-a]pyrimidine-8-carboxamide]	138 mm Hg
NC(=O)c1ncn2c1NCC=C2c1cc(Cl)ccc1Cl [Example 28, 4-(2,5-Dichlorophenyl)-1,2-dihydroimidazo[1,5-a]-pyrimidine-8-carboxamide]	106 mm Hg
NC(=O)c1ncn2c1NCC=C2c1cccc(C(F)(F)F)c1 [Example 26, 1,2-Dihydro-4-[3-(trifluoromethyl)phenyl]imidazo-[1,5-a]pyrimidine-8-carboxamide]	111 mm Hg

What follows are compounds tested on Brain-Specific Receptors of Rats (3H-benzodiazepine binding) (assay: Inhibition of the binding of 3H-benzodiazepine to brain-specific receptors of rats (antianxiety)). Details: rat cortex P2-synaptosomal fraction; 3H-diazepam (1.5 nM) or 3H-flunitrazepam (1.0 nM); 30 minutes in ice, pH 7.4; test concentration not given.
Parameters: species or system rat (Wistar strain)
From the text: The antianxiety properties of certain of the novel compounds of the present invention have been establish in a test which measures the ability of a test compound to inhibit the binding of tritiated benzodiazepines to brain-specific receptors of mammals. A modification of the method described by R. F. Squires, et al., Nature, 266, No. 21, pg 732 (April 1977) and H. Mohler, et al., Science, 198:849 (1977) was employed.
Male albino rats (Wistar strain, weighing 150 g 200 g each) were used. The test compounds were solubilized in dimethylformamide, acetic acid, ethanol or hydrochloric acid.
Whole cortex of rats was homogenized gently in 20 volumes of ice-cold 0.32 M sucrose, centrifuged twice at 1000 g for 10 minutes and then recentrifuged at 30,000 g for 20 minutes to produce a crude P2 -synaptosomal fraction. […]
The binding assay consisted of 300 μl of the P2 -fraction suspension (0.2-0.4 mg protein), 100 μl of test drug and 100 μl of ^3 H-diazepam (1.5 nM, final concentration) or ^3 H-flunitrazepam (1.0 nM, final concentration) which was added to 1.5 ml of 50 mM Tris.HCl (pH 7.4). […] After drying at 50°-60° C. for 30 minutes, 10 ml of diluent was added and the radioactivity determined in a scintillation counter.
Inhibition of binding was calculated by the difference between total binding and binding in the presence of test compound, divided by the total binding, ×100. […]

SMILES	% Inhibition of 3H-benzodiazepine binding
NC(=O)c1ncn2c1NCC=C2c1ccc(N2CCOCC2)cc1 [Example 38, 1,2-Dihydro-4-[4-(4-morpholinyl)-phenyl]imidazo[1,5-a]pyrimidine-8-carboxamide]	29%
COc1cccc(C2=CCNc3c(C(N)=O)ncn32)c1 [Example 30, 1,2-Dihydro-4-(3-methoxyphenyl)-imidazo[1,5-a]pyrimidine-8-carboxamide]	27%
